Experimental data reported in PMC12624743 (ACS Infectious Diseases, 2025).
In brackets after ≈: the same amount, converted by molar mass.

How the values were obtained:
[1] = system: N. gonorrhoeae topoisomerase IV ParC^S87N; assay: Topoisomerase IV-catalyzed DNA decatenation assay, ParC^S87N; format: biochemical, Neisseria gonorrhoeae; conditions: ParC S87N vs WT
Method: (§1) All proteins were His-tagged. N. gonorrhoeae WT gyrase (GyrA, GyrB) and topoisomerase IV (ParC, ParE) subunits as well as mutant GyrA^D90N, GyrA^A92T, GyrA^S91F, and GyrA^S91F/D95G gyrase and ParC^D86N and ParC^S88P topoisomerase IV were prepared as described previously. , N. gonorrhoeae mutant GyrA^D95G gyrase and mutant ParC^S87N and ParC^E91G topoisomerase IV were generated using a QuickChange II XL site-directed mutagenesis kit (Agilent Technologies) with custom primers for the desired mutations. Mutant N. gonorrhoeae GyrA and ParC subunits were expressed and purified as described by Ashley et al. with the following modifications to optimize protein expression and lysis: (1) GyrA^D95G was expressed for 2.5 h and ParC^S87N and ParC^E91G were expressed for 3 h before harvesting, and (2) cells were lysed by sonication using a digital sonifier (Branson). The identities of all constructs were confirmed by DNA sequencing, and all enzymes were stored at −80 °C. In all assays, N. gonorrhoeae gyrase or topoisomerase IV was used as a 1:1 GyrA:GyrB or ParC:ParE mixture, respectively, and the stated enzyme concentration reflects that of the holoenzyme (A2B2). […]

[2] = target: N. gonorrhoeae topoisomerase IV ParC^E91G (Neisseria gonorrhoeae, UniProt P48374, E91G); assay: Topoisomerase IV-catalyzed DNA decatenation assay, ParC^E91G; format: biochemical; set-up: His; made in house
Method: as §1

[3] = target: T1, N. gonorrhoeae gyrase GyrA^S91F/D95G (Neisseria gonorrhoeae, UniProt P48371, D95G/S91F); assay: Gyrase-catalyzed DNA supercoiling assay, GyrA^S91F/D95G; format: biochemical; conditions: read-out: IC50, inhibition of DNA supercoiling
T1 construct: His; made in house
Method: (§2) All proteins were His-tagged. N. gonorrhoeae WT gyrase (GyrA, GyrB) and topoisomerase IV (ParC, ParE) subunits as well as mutant GyrA^D90N, GyrA^A92T, GyrA^S91F, and GyrA^S91F/D95G gyrase and ParC^D86N and ParC^S88P topoisomerase IV were prepared as described previously. , N. gonorrhoeae mutant GyrA^D95G gyrase and mutant ParC^S87N and ParC^E91G topoisomerase IV were generated using a QuickChange II XL site-directed mutagenesis kit (Agilent Technologies) with custom primers for the desired mutations. […] The identities of all constructs were confirmed by DNA sequencing, and all enzymes were stored at −80 °C. In all assays, N. gonorrhoeae gyrase or topoisomerase IV was used as a 1:1 GyrA:GyrB or ParC:ParE mixture, respectively, and the stated enzyme concentration reflects that of the holoenzyme (A2B2).
(§3) Samples were mixed with 2 μL of loading dye [60% sucrose, 10 mM Tris–HCl (pH 7.9), 0.5% bromophenol blue, and 0.5% xylene cyanol FF] and incubated at 45 °C for 2 min before being subjected to electrophoresis on 1% agarose gels in 100 mM Tris-borate (pH 8.3) and 2 mM EDTA. […] DNA bands were visualized with medium-range ultraviolet light and quantified using an Alpha Innotech digital imaging system (Protein Simple). DNA supercoiling was monitored by the conversion of relaxed to supercoiled plasmid.

[4] = target: T2, N. gonorrhoeae gyrase GyrA^D90N (Neisseria gonorrhoeae, UniProt P48371, D90N); assay: Gyrase-catalyzed DNA supercoiling assay, GyrA^D90N; format: biochemical; conditions: read-out: IC50, inhibition of DNA supercoiling
T2 construct: His; made in house
Method: as §2, §3

[5] = target: T3, N. gonorrhoeae gyrase GyrA^D95G (Neisseria gonorrhoeae, UniProt P48371, D95G); assay: Gyrase-catalyzed DNA supercoiling assay, GyrA^D95G; format: biochemical
T3 construct: His; made in house
Method: as §2, §3

[6] = system: N. gonorrhoeae FA1090E-5 (GyrA^D90N/ParC^D86N); assay: MIC by agar dilution, GyrA^D90N/ParC^D86N strain; format: cell-based, Neisseria gonorrhoeae
Method: This strain was designated FA1090E-5 (GyrA^D90N/ParC^D86N).
(§4) Minimum inhibitory concentration (MIC) of test compounds was determined by an agar dilution method, the reference testing method for N. gonorrhoeae according to the standards of the Clinical and Laboratory Standards Institute and the CDC.

[7] = target: T2, N. gonorrhoeae gyrase GyrA^D90N; assay: DNA cleavage assay, GyrA^D90N gyrase; format: biochemical
Method: Some experiments replaced MgCl2 with an equivalent concentration of CaCl2 (10 mM), or 1.5 mM ATP was added to assay mixtures.
Reactions were incubated at 37 °C for 30 min with WT and mutant (GyrA^D90N, GyrA^A92T, GyrA^S91F, GyrA^D95G, or GyrA^S91F/D95G) N. gonorrhoeae gyrase, 10 min with WT N. gonorrhoeae topoisomerase IV, and 20 min with mutant (ParC^D86N, ParC^S88P, ParC^S87N, or ParC^E91G) N. gonorrhoeae topoisomerase IV. Enzyme-DNA cleavage complexes were trapped by adding 2 μL of 5% SDS followed by 2 μL of 250 mM EDTA (pH 8.0). Proteinase K was added (2 μL of a 0.8 mg/mL solution), and reaction mixtures were incubated at 45 °C for 30 min to digest the enzyme. Samples were mixed with 2 μL of loading buffer and heated at 45 °C for 2 min prior to electrophoresis in 1% agarose gels in 40 mM Tris-acetate (pH 8.3), and 2 mM EDTA containing 0.5 μg/mL ethidium bromide. DNA bands were visualized by midrange ultraviolet light and quantified using an Alpha Innotech digital imaging system (Protein Simple). Single-stranded DNA cleavage was monitored by the conversion of negatively supercoiled to nicked plasmid molecules.

[8] = system: N. gonorrhoeae topoisomerase IV ParC^E91G; assay: Topoisomerase IV-catalyzed DNA decatenation assay, ParC^E91G; format: biochemical, Neisseria gonorrhoeae; conditions: ParC E91G vs WT
Method: as §1

[9] = system: N. gonorrhoeae FA1090E-2 (GyrA^WT/ParC^D86N); assay: MIC by agar dilution, ParC^D86N strain; format: cell-based; conditions: Neisseria gonorrhoeae
Method: Mutations in these efflux genes can result in increased efflux to multiple antibiotics. […] Parental and isogenic mutant strains generated that carried the efflux mutations mtrR-79 and norM ΔT T6 were designated as FA1090E (E for efflux positive). Only the additional GyrA and ParC genotypes are described in Table and in the text. The mutant that additionally expressed ParC^D86N was named FA1090E-2.
as §4

T2 sequence (P48371 whole entry D90N): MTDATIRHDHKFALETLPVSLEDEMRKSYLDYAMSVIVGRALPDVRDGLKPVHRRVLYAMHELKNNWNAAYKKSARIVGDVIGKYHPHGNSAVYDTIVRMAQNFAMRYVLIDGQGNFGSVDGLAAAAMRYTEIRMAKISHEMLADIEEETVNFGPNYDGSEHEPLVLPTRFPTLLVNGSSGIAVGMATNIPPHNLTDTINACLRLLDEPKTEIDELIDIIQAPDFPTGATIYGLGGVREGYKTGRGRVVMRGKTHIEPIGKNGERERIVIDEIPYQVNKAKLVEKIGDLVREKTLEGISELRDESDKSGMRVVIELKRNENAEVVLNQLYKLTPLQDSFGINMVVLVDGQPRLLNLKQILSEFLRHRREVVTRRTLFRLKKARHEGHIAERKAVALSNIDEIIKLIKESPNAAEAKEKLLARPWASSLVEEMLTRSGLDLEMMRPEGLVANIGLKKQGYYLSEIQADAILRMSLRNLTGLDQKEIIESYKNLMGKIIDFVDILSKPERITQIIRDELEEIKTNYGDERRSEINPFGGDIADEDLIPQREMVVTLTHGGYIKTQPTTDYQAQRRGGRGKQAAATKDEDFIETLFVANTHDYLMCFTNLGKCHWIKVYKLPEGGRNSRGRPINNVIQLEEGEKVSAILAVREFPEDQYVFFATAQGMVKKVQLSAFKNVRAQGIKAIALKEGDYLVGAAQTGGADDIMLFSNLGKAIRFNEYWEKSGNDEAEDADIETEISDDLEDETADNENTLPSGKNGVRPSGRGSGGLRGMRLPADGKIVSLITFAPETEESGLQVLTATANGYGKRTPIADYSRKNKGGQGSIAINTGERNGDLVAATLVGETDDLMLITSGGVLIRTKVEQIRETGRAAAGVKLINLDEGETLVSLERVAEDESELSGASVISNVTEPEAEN
T2 sequence (P22118 whole entry partner): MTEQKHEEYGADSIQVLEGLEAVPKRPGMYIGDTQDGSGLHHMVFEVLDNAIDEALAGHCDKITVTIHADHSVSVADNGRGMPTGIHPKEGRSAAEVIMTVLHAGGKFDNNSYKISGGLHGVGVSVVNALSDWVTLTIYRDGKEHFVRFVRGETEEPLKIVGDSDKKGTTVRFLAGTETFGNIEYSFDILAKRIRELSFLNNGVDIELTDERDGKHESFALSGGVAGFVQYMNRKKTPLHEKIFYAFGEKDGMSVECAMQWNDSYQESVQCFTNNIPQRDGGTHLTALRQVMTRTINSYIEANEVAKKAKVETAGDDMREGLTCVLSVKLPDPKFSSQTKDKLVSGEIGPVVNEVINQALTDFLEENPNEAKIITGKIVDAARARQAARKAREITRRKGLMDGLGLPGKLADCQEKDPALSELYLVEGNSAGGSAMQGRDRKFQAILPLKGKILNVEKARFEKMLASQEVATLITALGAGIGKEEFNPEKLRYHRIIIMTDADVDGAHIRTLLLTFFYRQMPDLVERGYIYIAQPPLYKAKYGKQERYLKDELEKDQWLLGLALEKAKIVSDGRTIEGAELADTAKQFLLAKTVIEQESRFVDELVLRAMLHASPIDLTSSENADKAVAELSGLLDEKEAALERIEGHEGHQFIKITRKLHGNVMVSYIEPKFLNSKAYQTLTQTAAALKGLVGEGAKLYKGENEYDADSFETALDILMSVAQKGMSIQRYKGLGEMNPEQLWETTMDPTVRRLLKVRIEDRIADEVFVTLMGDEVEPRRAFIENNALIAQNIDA
T3 sequence (P48371 whole entry D95G): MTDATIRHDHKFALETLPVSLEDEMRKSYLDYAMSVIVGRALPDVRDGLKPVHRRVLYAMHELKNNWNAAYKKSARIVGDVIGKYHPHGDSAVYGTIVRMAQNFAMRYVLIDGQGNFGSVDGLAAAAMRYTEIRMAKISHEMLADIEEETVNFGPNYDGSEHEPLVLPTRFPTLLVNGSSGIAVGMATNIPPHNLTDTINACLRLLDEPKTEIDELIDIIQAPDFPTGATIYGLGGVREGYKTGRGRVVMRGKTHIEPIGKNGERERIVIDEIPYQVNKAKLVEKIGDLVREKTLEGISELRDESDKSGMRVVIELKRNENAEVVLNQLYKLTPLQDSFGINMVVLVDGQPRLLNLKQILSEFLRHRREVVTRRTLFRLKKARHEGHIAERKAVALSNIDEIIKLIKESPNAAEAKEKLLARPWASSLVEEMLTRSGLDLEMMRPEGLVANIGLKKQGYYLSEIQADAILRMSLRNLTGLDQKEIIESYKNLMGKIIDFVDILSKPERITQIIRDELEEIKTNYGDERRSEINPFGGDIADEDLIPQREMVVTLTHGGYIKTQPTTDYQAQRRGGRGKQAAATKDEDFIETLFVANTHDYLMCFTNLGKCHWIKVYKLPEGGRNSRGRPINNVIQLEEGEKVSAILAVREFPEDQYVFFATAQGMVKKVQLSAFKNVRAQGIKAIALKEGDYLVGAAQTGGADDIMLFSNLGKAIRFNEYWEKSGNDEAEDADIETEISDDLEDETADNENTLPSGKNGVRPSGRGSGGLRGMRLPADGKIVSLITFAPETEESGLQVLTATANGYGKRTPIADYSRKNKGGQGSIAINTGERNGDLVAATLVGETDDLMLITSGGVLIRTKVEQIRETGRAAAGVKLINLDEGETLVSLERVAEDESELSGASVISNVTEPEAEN
T3 sequence (P22118 whole entry partner): as the sequence (P22118 whole entry partner) above
Chain of N. gonorrhoeae topoisomerase IV ParC^E91G (Neisseria gonorrhoeae, UniProt P48374, E91G) (P48374 whole entry E91G): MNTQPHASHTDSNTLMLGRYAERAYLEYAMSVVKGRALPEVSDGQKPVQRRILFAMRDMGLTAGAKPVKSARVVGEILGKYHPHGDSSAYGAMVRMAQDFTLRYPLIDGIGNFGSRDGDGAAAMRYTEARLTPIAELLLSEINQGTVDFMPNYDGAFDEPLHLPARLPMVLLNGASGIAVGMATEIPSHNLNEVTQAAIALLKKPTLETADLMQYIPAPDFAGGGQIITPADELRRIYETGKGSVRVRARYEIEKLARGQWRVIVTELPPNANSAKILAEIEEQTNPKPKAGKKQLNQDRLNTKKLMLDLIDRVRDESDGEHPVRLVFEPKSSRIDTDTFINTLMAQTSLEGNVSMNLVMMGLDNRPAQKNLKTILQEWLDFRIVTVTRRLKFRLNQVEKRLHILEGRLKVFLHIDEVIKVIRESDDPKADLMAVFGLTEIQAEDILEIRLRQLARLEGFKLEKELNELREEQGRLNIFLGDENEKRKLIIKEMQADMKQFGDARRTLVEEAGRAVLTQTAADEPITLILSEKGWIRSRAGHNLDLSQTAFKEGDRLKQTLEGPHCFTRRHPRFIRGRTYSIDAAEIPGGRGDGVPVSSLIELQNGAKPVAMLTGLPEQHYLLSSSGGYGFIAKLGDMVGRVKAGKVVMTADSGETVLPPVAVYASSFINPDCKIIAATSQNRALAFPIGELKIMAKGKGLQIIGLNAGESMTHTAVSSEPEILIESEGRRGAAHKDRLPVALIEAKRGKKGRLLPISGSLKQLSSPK

Q: Which results are given for O=c1ccc2ncc(=O)n3c2n1C[C@H]3CN1CCC(NCc2cc3c(cn2)OCCC3)CC1 [gepotidacin]?
A: fold lower decatenation IC50 vs WT topoisomerase IV [1]: ~2.3 fold; IC50 [2]: 1.5 µM; IC50 [3]: 3.6 ± 2.4 µM; IC50 [4]: > 100 µM; IC50 ([5]; GyrA D95G gyrase, read-out: IC50, inhibition of DNA supercoiling): 2 µM; fold lower supercoiling IC50 vs WT gyrase ([5]; GyrA D95G vs WT): ~2.6 fold; MIC ([6]; Neisseria gonorrhoeae): > 64 µg/mL; fold-change in MIC from WT/WT parental strain ([6]; strain FA1090E-5 vs FA1090E): > 128 fold; Adj-Max Cleavage, single-stranded DNA breaks [7]: 1.7%; increase in gepotidacin-induced DNA cleavage ([7]; GyrA D90N gyrase): essentially no increase; fold lower decatenation IC50 vs WT topoisomerase IV [8]: ~1.2 fold; MIC [9]: 0.5 µg/mL (≈ 1.11 µM)
